From US20240091169A1, “POL[…] FOR TREATING INFLAMMATORY DISEASES” (UNIVERSITY OF SOUTH CAROLINA, priority 2022, published 2024)

What was measured:
[1] = test system: bone marrow derived macrophages (BMDMs); assay: CCK-8 cell viability of BMDMs; format: cell-based, C57BL/6 mice; conditions: Mus musculus, BMDM, 24 hr, read-out: IC50, cell survival of BMDMs
Description: Bone marrow-derived macrophages (BMDMs) were isolated from healthy 10-14-week-old C57BL/6 male mice. Briefly, mice were euthanized by isoflurane overdose. Femurs were cleared of muscle and debris. The epiphyses of the femurs were cut and placed knee-down and spun down in a 1.5 mL tube. Bone marrow was collected and resuspended in complete DMEM (cDMEM; 10% FBS, 1% penicillin/streptomycin) and passed through two 100 μm strainers. Cells were plated on an untreated 10 cm dish in cDMEM and allowed to incubate at 37° C. for 4 hr. Adherent/mature monocytes and dendritic cells were discarded, while floating/immature monocytes were collected. Cells were subjected to RBC lysis and resuspended in bone marrow maintenance media (BMMM; 20% L929-conditioned media in cDMEM). Cells were then plated on surface-treated 6-well plates at a 250 k cells/well seeding density. On day 3, fresh BMMM was added. On day 5, media was aspirated and fresh BMMM was added. […] Cells were stained and analyzed for macrophages via flow cytometry as described above with the addition of analyzing macrophage phenotypes. From the CD11b^+CD68^+ macrophage population, macrophage phenotypes were determined based on CD206 and CD11c expression. […] All cells were measured using a FACS Aria II (BD) and analyzed using FlowJo (BD Biosciences). […]

[2] = test system: BMDMs incubated with IL-4 (M2 media); assay: M2 macrophage polarization of BMDMs with IL-4 (flow cytometry); format: cell-based, C57BL/6 mice; conditions: 1 μM PA, M2 media (IL-4), 24 hr, vs VEH
Description: Bone marrow-derived macrophages (BMDMs) were isolated from healthy 10-14-week-old C57BL/6 male mice. Briefly, mice were euthanized by isoflurane overdose. Femurs were cleared of muscle and debris. The epiphyses of the femurs were cut and placed knee-down and spun down in a 1.5 mL tube. Bone marrow was collected and resuspended in complete DMEM (cDMEM; 10% FBS, 1% penicillin/streptomycin) and passed through two 100 μm strainers. Cells were plated on an untreated 10 cm dish in cDMEM and allowed to incubate at 37° C. for 4 hr. Adherent/mature monocytes and dendritic cells were discarded, while floating/immature monocytes were collected. Cells were subjected to RBC lysis and resuspended in bone marrow maintenance media (BMMM; 20% L929-conditioned media in cDMEM). Cells were then plated on surface-treated 6-well plates at a 250 k cells/well seeding density. On day 3, fresh BMMM was added. On day 5, media was aspirated and fresh BMMM was added. For M2 macrophage polarization experiments, 6-day mature macrophages were given either cDMEM+VEH, M2 media (cDMEM with 10 ng/mL IL-4)+VEH, or M2 media+1 μM PA. Cells were incubated for 24 hr. For C26 colon tumor conditioned media (C26 CM) experiments, 6-day mature macrophages were given either serum-free media (SFM)+VEH, 33% C26-conditioned media (C26 CM)+VEH, or 33% C26 CM+1, 2.5, or 5 μM PA. Cells were incubated for 48 hr. After incubation with these different treatments, cells were washed twice with PBS and incubated with 5 mM EDTA PBS at 4° C. for 20 min. Cells were then gently scraped and transferred into flow tubes, spun at 1600 rpm at 4° C. for 5 min, and washed in PBS before antibody staining. Cells were stained and analyzed for macrophages via flow cytometry as described above with the addition of analyzing macrophage phenotypes. From the CD11b^+CD68^+ macrophage population, macrophage phenotypes were determined based on CD206 and CD11c expression. […] All cells were measured using a FACS Aria II (BD) and analyzed using FlowJo (BD Biosciences). […]

## C=CC(O)C#CC#CC/C=C\CCCCCCC (stereo in doubt) [PA, 3(R)-(9Z)-heptadeca-1,9-dien-4,6-diyn-3-ol]
[1]
  IC50: ~7 µM
[2]; p=0.06
  naïve M0 macrophages: increased
[2]; p=0.08
  M2 macrophages: non-significantly reduced
[2]; p=0.12
  transitional M1-M2 macrophages: non-significantly reduced
